Data published in patent US20060276485A1, “Substituted piperidine and piperazine derivatives as melanocortin-4 receptor modulators” (priority 2003, published 2006).
Entries after “also recorded” stand apart in the source; their conditions may differ. Where two headings read alike, the source gives them in different places.

How the values were obtained:
[1] = biological target: T1, human melanocortin-4 receptor (hMC4-R) (Homo sapiens, UniProt P32245); assay: Functional cellular cAMP assay in HEK293 cells, fluorescence polarization; assay type: cell-based
T1 construct: expressed in transfected cells; host or cells: HEK293 cells
Method: A functional cellular assay, based on competition between unlabeled CAMP and a fixed quantity of fluorescence labeled CAMP for a limited number of binding sites on a CAMP specific antibody, is used to discriminate melanocortin receptor agonists from antagonists by fluorescence polarization.
HEK293 cells expressing one of the human melanocortin receptors are transferred to 384 well microtiter plates, an appropriate amount of CAMP antibody is added, followed by the addition of different concentrations of the test compound to effect cAMP production. Cells are lysed and a fluorescence labeled cAMP conjugate is dispensed. The plate is read on a fluorescence polarization microplate reader and the amount of cAMP produced as a response to a test compound is compared to the production of CAMP resulting from stimulation with NDP-alpha-MSH. […]

[2] = biological target: T1, human melanocortin-4 receptor (hMC4-R); assay: Membrane binding assay: competition with fluorescence labeled NDP-alpha-MSH, fluorescence polarization
Method: A membrane binding assay is used to identify competitive inhibitors of fluorescence labeled NDP-alpha-MSH binding to HEK293 cell membrane preparations expressing human melanocortin receptors.
The test compound or unlabeled NDP-alpha-MSH is dispensed at varying concentrations to a 384 well microtiter plate. Fluorescence labeled NDP-alpha-MSH is dispensed at a single concentration, followed by addition of membrane preparations. The plate is incubated for 5 h at room temperature.
The degree of fluorescence polarization is determined with a fluorescence polarization microplate reader.

[3] = Spontaneous feeding paradigm: food intake in rats; assay type: in vivo, male Wistar rats; conditions: for increase in cumulative food intake: compared to vehicle; for activity in the spontaneous feeding paradigm: significant increase in food intake at dose of 3 to 30 mg/kg p.o.
Method: Food intake in rats is measured after i.p. or p.o. administration of the test compound (see e.g. Chen, A. S. et al. Transgenic Res 2000 April 9(2):145-54).
Selected Examples of the present invention were active in the rat model at 3, 10 or 30 mg/kg after i.p. and p.o. administration of the test compound, respectively, using male Wistar rats (n=4).

melanocortin-4 receptor [4] = biological target: T2, melanocortin-4 receptor (Homo sapiens, UniProt P32245); conditions: cited from earlier work; for EC50: read-out: melanocortin-4 receptor activation EC50
melanocortin-4 receptor [5] = biological target: T2, melanocortin-4 receptor; conditions: J. Med. Chem. 2004, 47, 744-755; read-out: melanocortin-4 receptor binding Ki; cited from earlier work
[6] = Bioorg. Med. Chem. Lett. 2003, 13, 3793-3796

T2 sequence (P32245 whole entry): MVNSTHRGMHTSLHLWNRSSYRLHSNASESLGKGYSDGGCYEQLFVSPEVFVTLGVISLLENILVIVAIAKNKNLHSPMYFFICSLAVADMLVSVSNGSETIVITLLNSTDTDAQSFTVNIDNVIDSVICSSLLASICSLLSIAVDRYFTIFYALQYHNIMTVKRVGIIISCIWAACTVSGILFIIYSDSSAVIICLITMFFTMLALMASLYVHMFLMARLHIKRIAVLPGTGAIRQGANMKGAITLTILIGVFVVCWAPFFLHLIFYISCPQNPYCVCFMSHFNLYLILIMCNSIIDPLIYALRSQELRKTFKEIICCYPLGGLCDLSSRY
T1 sequence (P32245 whole entry): as above

Compound: O=C(N[C@@H](Cc1ccc(Cl)cc1)C(=O)N1CCC(c2ccccc2CN2CCCC2=O)CC1)c1cc(=O)c2ccccc2o1 [Example 1]
- % activation functional assay ([1]; relative to NDP-alpha-MSH): does not activate; also recorded: no activation
- IC50 [2]: 200 nM
- increase in cumulative food intake ([3]; 30 mg/kg p.o., 4 hours following administration): 159%
- increase in cumulative food intake ([3]; 30 mg/kg p.o., 6 hours following administration): 131%
- increase in cumulative food intake ([3]; 30 mg/kg p.o., 7 hours following administration): 148%
- activity in the spontaneous feeding paradigm [3]: active

Compound: COc1ccc2oc(C(=O)N[C@@H](Cc3ccc(Cl)cc3)C(=O)N3CCC(c4ccccc4CN4CCCC4=O)CC3)cc(=O)c2c1 [Example 17]
- increase in cumulative food intake ([3]; 10 mg/kg p.o., 2 hours following administration): 3100%
- increase in cumulative food intake ([3]; 10 mg/kg p.o., 4 hours following administration): 540%
- activity in the spontaneous feeding paradigm [3]: active

Compound: O=C(N[C@H](Cc1ccc2ccccc2c1)C(=O)N1CCC(c2ccccc2CN2CCCC2=O)CC1)c1cc(=O)c2ccccc2o1 [Example 91]
- % activation functional assay ([1]; relative to NDP-alpha-MSH): does not activate; also recorded: no activation
- IC50 [2]: 120 nM

Compound: O=C(N[C@@H](Cc1ccc(Cl)cc1)C(=O)N1CCC(c2ccccc2CN2CCCCC2=O)CC1)c1cc(=O)c2ccccc2o1 [Example 92]
- % activation functional assay ([1]; relative to NDP-alpha-MSH): does not activate; also recorded: no activation
- IC50 [2]: 200 nM

Compound: O=C(N[C@H](Cc1ccc(Cl)cc1)C(=O)N1CCC(c2ccccc2CN2CCCCC2=O)CC1)c1cc(=O)c2ccccc2o1 [Example 93]
- % activation functional assay ([1]; relative to NDP-alpha-MSH): does not activate; also recorded: no activation
- IC50 [2]: 51 nM

Compound: O=C(N[C@H](Cc1ccc(Cl)cc1)C(=O)N1CCC(c2ccccc2CN2CCC2=O)CC1)c1cc(=O)c2ccccc2o1 [Example 178]
- % activation functional assay ([1]; relative to NDP-alpha-MSH): does not activate; also recorded: no activation
- IC50 [2]: 200 nM

Compound: O=C(N[C@@H](Cc1ccc(Cl)cc1)C(=O)N1CCC(c2ccccc2CN2CCCCCC2=O)CC1)c1cc(=O)c2ccccc2o1 [Example 179]
- % activation functional assay ([1]; relative to NDP-alpha-MSH): does not activate; also recorded: no activation
- IC50 [2]: 500 nM

Compound: O=C(N[C@H](Cc1ccc(Cl)cc1)C(=O)N1CCC(c2ccccc2CN2CCCCCC2=O)CC1)c1cc(=O)c2ccccc2o1 [Example 180]
- % activation functional assay ([1]; relative to NDP-alpha-MSH): does not activate; also recorded: no activation
- IC50 [2]: 47 nM

Compound: O=C(N[C@@H](Cc1ccc(Cl)cc1)C(=O)N1CCN(c2ccccc2CN2CCCC2=O)CC1)c1cc(=O)c2ccccc2o1 [Example 181]
- % activation functional assay ([1]; relative to NDP-alpha-MSH): does not activate; also recorded: no activation
- IC50 [2]: 770 nM

Compound: O=C(N[C@H](Cc1ccc(Cl)cc1)C(=O)N1CCN(c2ccccc2CN2CCCC2=O)CC1)c1cc(=O)c2ccccc2o1 [Example 182]
- % activation functional assay ([1]; at 10 μM): 15%@10 μM
- % activation functional assay ([1]; at 10 μM, listed as example 182): little or no activation
- IC50 [2]: 61 nM
- increase in cumulative food intake ([3]; 3 mg/kg p.o., 2 hours following administration): 273%
- increase in cumulative food intake ([3]; 3 mg/kg p.o., 4 hours following administration): 204%
- increase in cumulative food intake ([3]; 3 mg/kg p.o., 6 hours following administration): 156%
- increase in cumulative food intake ([3]; 3 mg/kg p.o., 7 hours following administration): 197%
- activity in the spontaneous feeding paradigm [3]: active

Compound: O=C(N[C@H](Cc1ccc2ccccc2c1)C(=O)N1CCN(c2ccccc2CN2CCCC2=O)CC1)c1cc(=O)c2ccccc2o1 [Example 267]
- % activation functional assay ([1]; relative to NDP-alpha-MSH): does not activate; also recorded: no activation
- IC50 [2]: 100 nM

Compound: CS(=O)(=O)Nc1ccccc1N1CCN(C(=O)[C@@H](Cc2ccc(Cl)cc2)NC(=O)[C@H]2Cc3ccccc3CN2)CC1 [WO03009850 (example 1)]
- stimulation of melanocortin-4 receptor (melanocortin-4 receptor [4]; [6]): 100%
- EC50 (melanocortin-4 receptor [4]; [6]): 380 nM
- EC50 (melanocortin-4 receptor [4]; J. Med. Chem. 2004, 47, 744-755): 16 nM
- Ki (melanocortin-4 receptor [5]): 220 nM
- EC50 [1]: 3700 nM
- % activation functional assay ([1]; relative to NDP-alpha-MSH): 96%
- IC50 [2]: 500 nM

Compound: O=C(N[C@H](Cc1ccc(Cl)cc1)C(=O)N1CCC(c2ccccc2CN2CCCC2=O)CC1)c1cc(=O)c2ccccc2o1 [example 2]
- EC50 [1]: 5700 nM
- % activation functional assay ([1]; relative to NDP-alpha-MSH): 43%
- IC50 [2]: 36 nM
